Source: paper PMC3793977, “High-Throughput Screening (HTS) and Hit Validation to Identify Small Molecule Inhibitors with Activity against NS3/4A proteases from Multiple Hepatitis C Virus Genotypes” (PLoS ONE, 2013)
Where “and” joins values, the source holds several entries; their conditions need not be identical. Equal values may be shown once.

Key:
Format in all cases: biochemical
[1] = molecular target: T1, NS3/4A protease genotype 1a (Hepatitis C virus genotype 1a, UniProt P27958); experiment: Inhibition assay with NS3/4A from genotype 1a; conditions: IC50 NS3/4A genotype 1a
T1 construct: against the NS3/4A protease domains from three additional HCV genotypes (1a, 2a, and 4d); purchased Anaspec
Experimental: (§1) The inhibitory activity of the final hit compounds from HTS were tested against three other HCV genotypes (1a, 2a, and 4d), along with a control (genotype 1b) and five NS3 drug-resistant mutants. Eight full-length NS3 mutants (V36M, R155K, A156T, A156S, 156V, V36A, T54A, and R155T) were generated by mutagenesis and purified, and the three HCV NS3/4A protease genotypes were purchased from Anaspec. Unfortunately the enzyme activities of the three mutants V36A, T54A, and R155T were much less than that of the rest of the mutants and were insufficient for testing, therefore mutant studies were done with the five active mutants. Continuous kinetic assays were performed against all hit compounds in the same way as the wild-type NS3/4A. As a control, full-length NS3/4A (genotype 1b) was tested under the same conditions for direct comparison for each plate.

[2] = molecular target: T2, NS3/4A protease genotype 2a (Hepatitis C virus genotype 2a, UniProt Q99IB8); experiment: Inhibition assay with NS3/4A from genotype 2a
T2 construct: against the NS3/4A protease domains from three additional HCV genotypes (1a, 2a, and 4d); purchased Anaspec
Experimental: as §1

[3] = molecular target: T3, full-length NS3/4A genotype 1b mutant A156T (Hepatitis C virus genotype 1b, UniProt Q9WMX2, A1182T); experiment: Inhibition assay with drug-resistant mutant A156T
T3 construct: wild-type HCV NS3 (HCV polyprotein residues 1027–1657); His-tag (N); made in house
Experimental: (§2) The full-length genes of wild-type HCV NS3 (HCV polyprotein residues 1027–1657) with a his-tag at the N-terminus and NS4A (residues 1658–1711) with no tag were cloned, co-expressed, and purified as described. Eight NS3 drug resistant mutants (V36M, V36A, T54A, R155K, R155T, A156T, A156S, and 156V) were generated by mutagenesis using full-length, wild-type NS3-containing recombinant plasmid (pETDuet-1/FL NS3/4A) as a template. The over-expression and purification of all mutants were performed by the same method as the wild-type with minor modifications.
as §1, with “As a control, full-length NS3/4A (genotype 1b) was tested under the same conditions for direct comparison for each plate.” left out

[4] = molecular target: T4, full-length NS3/4A genotype 1b mutant A156S (Hepatitis C virus genotype 1b, UniProt Q9WMX2, A1182S); experiment: Inhibition assay with drug-resistant mutant A156S
T4 construct: wild-type HCV NS3 (HCV polyprotein residues 1027–1657); His-tag (N); made in house
Experimental: as §2
as §1, with “As a control, full-length NS3/4A (genotype 1b) was tested under the same conditions for direct comparison for each plate.” left out

[5] = molecular target: T5, full-length NS3/4A genotype 1b mutant A156V (Hepatitis C virus genotype 1b, UniProt Q9WMX2, A1182V); experiment: Inhibition assay with drug-resistant mutant A156V; conditions: genotype 1b full-length mutant
T5 construct: wild-type HCV NS3 (HCV polyprotein residues 1027–1657); His-tag (N); made in house
Experimental: as §2
as §1, with “As a control, full-length NS3/4A (genotype 1b) was tested under the same conditions for direct comparison for each plate.” left out

[6] = molecular target: T6, full-length NS3/4A genotype 1b mutant R155K (Hepatitis C virus genotype 1b, UniProt Q9WMX2, R1181K); experiment: Inhibition assay with drug-resistant mutant R155K
T6 construct: wild-type HCV NS3 (HCV polyprotein residues 1027–1657); His-tag (N); made in house
Experimental: as §2
as §1, with “As a control, full-length NS3/4A (genotype 1b) was tested under the same conditions for direct comparison for each plate.” left out

[7] = molecular target: T7, full-length NS3/4A genotype 1b mutant V36M (Hepatitis C virus genotype 1b, UniProt Q9WMX2, V1062M); experiment: Inhibition assay with drug-resistant mutant V36M; conditions: genotype 1b full-length mutant
T7 construct: wild-type HCV NS3 (HCV polyprotein residues 1027–1657); His-tag (N); made in house
Experimental: as §2
as §1, with “As a control, full-length NS3/4A (genotype 1b) was tested under the same conditions for direct comparison for each plate.” left out

Trypsin = molecular target: T8, Trypsin (Homo sapiens, UniProt P07477); experiment: Inhibitor selectivity assay, trypsin (fluorometric)
T8 construct: purchased Sigma
Experimental: (§3) To test for selectivity, two human serine proteases, Trypsin and Chymotrypsin (Sigma), were tested with the top two hit compounds from HTS using a fluorometric assay. The fluorogenic substrates used in this study were N-benzoyl-L-Arg-7-amido-4-methylcoumarin (Sigma) and N-succinyl-Ala-Ala-Phe-7-amido-4- methylcoumarin (Sigma) for trypsin and chymotrypsin, respectively. All assays were performed in 384-well black plates (Corning) in a total volume of 24 µL of PBS (pH 7.4) buffer containing 0.01% Triton, 0.1 mg/mL BSA, and 2 mM GSH in triplicate. A series of compound concentrations (0 to 200 µM final concentration at 2-fold serial dilution) in 100% DMSO was prepared in a 384-well plate. 20 µL of trypsin (0.01 mg/mL) and chymotrypsin (0.0001 mg/mL) solutions were distributed into wells, and 0.5 µL of varying concentration of compounds were added and incubated for 10 minutes. The enzyme reaction was initiated by adding 5 µL of the substrate (50 µM final concentration), and fluorescence intensity was continuously monitored at excitation/emission wavelengths of 350 nm/460 nm for 10 minutes.

Chymotrypsin = molecular target: T9, Chymotrypsin (Homo sapiens, UniProt P17538); experiment: Inhibitor selectivity assay, chymotrypsin (fluorometric)
T9 construct: purchased Sigma
Experimental: as §3

[8] = molecular target: T10, HCV replicon cell lysate sg 1b (NS3) (Hepatitis C virus genotype 1b, UniProt Q9WMX2); experiment: Whole cell lysate inhibition assay, HCV subgenomic replicon 1b
T10 construct: host or cells: Huh7 Clone B cells stably replicating an HCV 1b subgenomic replicon; whole cell lysate
Experimental: (§4) Huh7-1 cells (also known as Huh7/scr cells) were obtained from F.V. Chisari (The Scripps Research Institute, La Jolla, CA). Clone B HCV sub-genotype 1b Huh7 cells were obtained from the NIH AIDS Research and Reference Reagent Program and have been previously described. Huh7 cells stably replicating the sub-genotype 2a HCV JFH-1 replicon were generated as previously described. All cells were cultured in complete Dulbecco’s modified Eagle’s medium (DMEM) supplemented with 10% fetal bovine serum, 100 units/mL penicillin, […] streptomycin, and 2 mM L-glutamine. HCV replicon cells were maintained in 500 µg/mL Geneticin (Invitrogen). For NS3 inhibition analysis, lysates from parental Huh7 cells and HCV replicon cells were harvested on ice in pre-chilled FRET cell lysis buffer (50 mM Tris-HCl, pH 7.5; 150 mM NaCl, 2 mM EDTA, 1.25% Triton X-100). Lysates were brought to room temperature and mixed 1∶1 with 2× FRET assay buffer (100 mM Tris-HCl, pH 7.5, 300 mM NaCl, 4 mM EDTA, 2.5% Triton X-100, 10 mM GSH, and 4 µM substrate). Fluorescence intensity was continuously monitored for 1 hour, and IC50 values were determined in the same way as biochemical assays.

[9] = molecular target: T11, HCV replicon cell lysate sg 2a (NS3) (Hepatitis C virus genotype 2a, UniProt Q99IB8); experiment: Whole cell lysate inhibition assay, HCV subgenomic replicon 2a
T11 construct: expressed in transfected cells; host or cells: Huh7 cells stably replicating the JFH-1 subgenomic replicon; whole cell lysate
Experimental: as §4

Q: `Cc1cc(NC(=O)Cc2csc(NS(=O)(=O)c3ccccc3)n2)ccc1Br` [Compound 12] was tested. Which IC50 [1] did it give?
A: < 20 µM

Q: And the IC50 ([2]; IC50 Purified NS3/4A Sub-genotype 2a, genotype 2a)?
A: 12.7 ± 1.2 µM

Q: What about the “fold less effective against genotype 2a than 1b in the biochemical assay” value ([2]; purified enzymes) of the same compound?
A: ~6 fold

Q: And the IC50 [3]?
A: ≤ 20 µM

Q: And the IC50 [4]?
A: ≤ 20 µM

Q: And the IC50 [5]?
A: ≤ 20 µM

Q: And the IC50 [6]?
A: ≤ 20 µM

Q: What about the IC50 [7] of the same compound?
A: ≤ 20 µM

Q: And the inhibition at 100 µM (Trypsin; 100 µM compound, read-out: Trypsin % Inh at 100 µM)?
A: 28%

Q: What about the IC50 (Trypsin; human trypsin) of the same compound?
A: > 100 µM

Q: And the inhibition at 100 µM (Chymotrypsin; 100 µM compound, read-out: Chymotrypsin % Inh at 100 µM)?
A: 19%

Q: What about the IC50 (Chymotrypsin; human chymotrypsin) of the same compound?
A: > 100 µM

Q: And the “fold increase of IC50, whole cell lysate 1b vs biochemical assay” value ([8]; sg1b lysate compared to purified enzyme)?
A: 10–20 fold

Q: And the IC50 ([8]; whole cell lysate, subgenomic replicon 1b)?
A: < 120 µM and 29.3 µM

Q: What about the “fold increase of IC50, whole cell lysate 2a vs biochemical assay” value ([9]; sg2a lysate compared to purified enzyme) of the same compound?
A: 10–20 fold

Q: What about the IC50 ([9]; whole cell lysate, subgenomic replicon 2a) of the same compound?
A: < 120 µM and 115 µM
